# Measured values as given in US11203739B2, “Modulating cell proliferation and pluripotency” (Memorial Sloan Kettering Cancer Center, priority 2014, dated 2021).
# Entries after “also recorded” stand apart in the source; their conditions may differ.
# Legend:
# Assay type in all cases: cell-based, mouse
# ESC-1 cells [1] = assay: qRT-PCR gene expression of ICM and germline-associated genes; details: for expression of ICM and germline-associated genes: ESC-1 cells, three days
# Procedure: qRT-PCR. RNA was isolated using the RNeasy kit (Qiagen). After DNase treatment, 1-2 μg RNA was used for cDNA synthesis using the First-Strand Synthesis kit (Invitrogen). Quantitative RT-PCR analysis was performed in biological triplicate using an ABI Prism 7000 (Applied Biosystems) with Platinum SYBR green.
# ESC-1 cells [2] = assay: Colony formation (self-renewal) assay with alkaline phosphatase staining; details: S/L medium, 4 mM, four days; for number of undifferentiated colonies: compared to S/L and the other treatment
# Procedure: Self-renewal assays. ES cells free of feeder MEFs were plated at 100 cells per well in 6-well plates coated with 20 μg/mL mouse laminin (Stemgent 06-0002) in maintenance S/L medium. The following day media was changed to S/L experimental medium containing dimethyl-α-ketoglutarate (4 mM, Sigma 349631), dimethyl-succinate (4 mM, Sigma W239607) or DMSO vehicle control. Four days later cells were washed with PBS and stained for alkaline phosphatase using Vector Red Alkaline Phosphatase Kit (Vector Labs) according to manufacturer's instructions.
# ESC-1 cells [3] = assay: Western blot of histone methylation in glutamine-free media with DM-αKG supplementation; details: glutamine-free S/L or 2i/L media, 24 hours
# Procedure: (§1) Cell culture. Maintenance media for ES cells were as follows: serum/LIF (S/L) maintenance medium contained Knockout DMEM (Gibco) supplemented with 15% ESC-qualified FBS (Gemini), penicillin/streptomycin (Life Technologies), 0.1 mM 2-mercaptoethanol, L-glutamine (2 mM, Life Technologies) and leukemia inhibitory factor (LIF) plated onto irradiated feeder mouse embryonic fibroblasts (MEFs); 2i/LIF maintenance conditions used a base medium made from a 1:1 mix of DMEM/F12 (Life Technologies 11302-033) and Neurobasal (Life Technologies 21103-049) containing N2 and B27 supplements (Life Technologies 17502-048 and 17504-044, 1:100 dilutions), penicillin/streptromycin, 0.1 mM 2-mercaptoethanol, L-glutamine (2 mM), LIF, CHIR99021 at 3 μM (Stemgent) and PD0325901 at 1 μM (Stemgent). Experimental media utilized for all experiments (except growth curves with and without glucose, ^13C isotope tracing experiments and ^14C labeling experiments) contained 1:1 mix of glutamine-free DMEM (Life Technologies 11960-051) and Neurobasal (Life Technologies 21103-049) with or without 2 mM glutamine. With the exception of 15% dialyzed FBS (Gemini 100-108) in S/L experimental medium, all other supplements were equivalent to maintenance media (S/L or 2i/L). […]
# ESC-V19 cells = assay: Growth curves in glutamine-free medium; details: glutamine-free S/L or 2i/L media, 4 mM DM-αKG
# Procedure: as §1
# Growth curves. […] Cells were counted each day using a Beckman Coulter Multisizer 4.
# Nanog-GFP ESCs = assay: Nanog-GFP reporter FACS; details: S/L medium, three days
# Procedure: FACS. Nanog-GFP ESCs^8 were cultured in S/L experimental medium for three passages and 2.5×10^4 cells were plated into a 6-well plate. Twenty-four hours later media was changed to S/L medium containing vehicle control or DM-AKG. Media was subsequently changed 48 hours later and cells harvested the following day. FACS analysis was performed at The Rockefeller University Flow Cytometry Resource Center using a BD LSR II. Data was generated using FlowJo. Analysis was performed on biological triplicates.
# ESC-1 cells [4] = assay: DNA methylation quantification (% 5mC); details: S/L medium, 24 hours
# Procedure: DNA methylation. Genomic DNA was extracted from ESC samples using Puregene Core Kit A (Sigma). DNA methylation was measured using the colorimetric MethylFlash Methylated DNA quantification kit (Epigentek) according to manufacturer instructions.
# UTX and Jmjd3 = assay: Western blot of H3K27 methylation after GSK-J4 treatment; details: ESC-1 cells in S/L, increasing amounts of GSK-J4, 24 hours
# Procedure: as §1
# UTX/Jmjd3 = assay: H3K27me3 ChIP-PCR at bivalent domain promoters; details: 30 μM, five hours
# Procedure: Chromatin immunoprecipitation. Native ChIP assays (histones) were performed with approximately 6×10^6 ESCs per experiment. Cells were subject to hypotonic lysis and treated with micrococcal nuclease to recover mono- to tri-nucleosomes. Nuclei were lysed by brief sonication and dialyzed into N-ChIP buffer (10 mM Tris pH 7.6, 1 mM EDTA, 0.1% SDS, 0.1% Na-Deoxycholate, 1% Triton X-100) for 2 hr at 4° C. Soluble material was incubated overnight at 4° C. following addition of 3-5 μg of antibody bound to 75 μL protein A Dynal magnetic beads (Invitrogen), with 5% kept as input DNA. Magnetic beads were washed, chromatin was eluted, and ChIP DNA was dissolved in 10 mM Tris pH 8 for quantitative PCR reactions (see below).
# ChIP-qPCR. Primers are listed below. All qPCR was performed using an Applied Biosystems StepOnePlus system and Power SYBR Green PCR master mix. ChIP samples were diluted 1:100 in H2O and 5 μL used per reaction. ChIP-qPCR signals were calculated as percent input.
# ESC-1 cells [5] = assay: GC-MS metabolite profiling, αKG:succinate ratio; details: 1 μM or 5 μM, 3 hours; for αKG:succinate ratio: S/L or 2i/L medium
# Procedure: Metabolite profiling. For all metabolite experiments, cells were seeded in their standard culture medium in 6-well plates and the next day were changed into experimental medium. Medium was changed again at the indicated time before harvest (usually 1-24 hours). Metabolites were extracted with 1 mL ice-cold 80% methanol supplemented with 20 μM deuterated 2-hydroxyglutarate (D-2-hydroxyglutaric-2,3,3,4,4-d5 acid, d5-2HG) as an internal standard. After overnight incubation at −80° C., lysates were harvested and centrifuged at 21,000 g for 20 minutes to remove protein. Extracts were dried in an evaporator (Genevac EZ-2 Elite) and resuspended by incubation at 30° C. for 2 hours in 50 μL of 40 mg/mL methoxyamine hydrochloride in pyridine. Metabolites were further derivatized by addition of 80 μL of MSTFA +1% TCMS (Thermo Scientific) and 70 μl ethyl acetate (Sigma) and incubated at 37° C. for 30 minutes. Samples were analyzed using an Agilent 7890A GC coupled to Agilent 5975C mass selective detector. […] Peaks representing compounds of interest were extracted and integrated using MassHunter software (Agilent Technologies) and then normalized to both the internal standard (d5-2HG) peak area and protein content of duplicate samples as determined by BCA protein assay (Thermo Scientific). Ions used for quantification of metabolite levels are as follows: d5-2HG m/z 354; KG, m/z 304; aspartate, m/z 334; citrate, m/z 465; glutamate, m/z 363; malate, m/z 335 and succinate, m/z 247. […] Enrichment of ^13C was assessed by quantifying the abundance of the following ions: αKG, m/z 304-315; aspartate, m/z 334-346; citrate, m/z 465-482; glutamate, m/z 363-377 and malate, m/z 335-347. […] Flux was calculated as the product of the first order rate constant of the kinetic labeling curve and relative metabolite pool size (normalized to mean S/L values for each experiment)^5. The flux from glucose- and glutamine-derived carbons was calculated for each of three independent experiments and the average total flux for each metabolite was shown.
smiles,measurement,setting,value
"COC(=O)CCC(=O)OC [DM-succinate, dimethyl-succinate]",expression of ICM and germline-associated genes,ESC-1 cells [1],not
same,predominant colony types,ESC-1 cells [2],either mixed or differentiated
same,number of undifferentiated colonies,ESC-1 cells [2],reproducible trend of fewer undifferentiated and more differentiated colonies
"COC(=O)CCC(=O)C(=O)OC [DM-αKG, dimethyl-α-ketoglutarate]",H3K27me3 and H4K20me3 levels (Western blot),ESC-1 cells [3],reversed the increase in H3K27me3 and H4K20me3
same,effects on gene expression in Tet1/Tet2 double knockout ES cells,ESC-1 cells [1]; 72 hours,largely abrogated in Tet1/Tet2 double knockout ES cells
same,expression of ICM and germline-associated genes,ESC-1 cells [1],induced expression of ICM and germline-associated genes
same,effects on gene expression upon extended passaging,"ESC-1 cells [1]; S/L medium, 24 hours or four passages",persisted upon extended passaging
same,colony staining and morphology (brightfield images),ESC-1 cells [2],stained brighter and retained a more compact colony morphology
same,number of undifferentiated colonies,ESC-1 cells [2],more than double the number of fully undifferentiated colonies; also recorded: more undifferentiated colonies than vehicle or DM-succinate treated wells
same,glutamine-independent proliferation,ESC-V19 cells,sufficient to enable glutamine-independent proliferation in both S/L and 2i/L conditions
same,Nanog expression detected by GFP fluorescence,Nanog-GFP ESCs,sufficient to enhance Nanog expression in a dose-dependent manner
same,total DNA methylation (% 5mC),ESC-1 cells [4],reduced
CCOC(=O)CCNc1cc(N2CCc3ccccc3CC2)nc(-c2ccccn2)n1 [GSK-J4],H3K27me1 level (Western blot),UTX and Jmjd3,concomitant reduction of H3K27me1
same,H3K27me3 level (Western blot),UTX and Jmjd3,dose-dependent increase in H3K27me3
same,H3K27me3 at bivalent domain promoters,UTX/Jmjd3; ESC-1 cells in 2i/L medium,consistent increase in H3K27me3 at bivalent domain promoters
same,H3K27me3 at bivalent domain promoters,UTX/Jmjd3; ESC-1 cells in S/L medium,did not change
same,"absolute and relative increase in the αKG:succinate ratio, 2i/L compared with S/L",ESC-1 cells [5],more pronounced in the cells grown in 2i/L medium
same,αKG:succinate ratio,ESC-1 cells [5],triggered increases in the αKG:succinate ratio
CCOC(=O)CCNc1cc(N2CCc3ccccc3CC2)nc(-c2cccnc2)n1 [GSK-J5],αKG:succinate ratio,ESC-1 cells [5],had no effect
